# Read-outs that look alike come from different tables or passages of the source.
# Key:
# [1] = for Volume of distribution in the peripheral compartment 2, V3: exp(6); for Volume of distribution in the peripheral compartment 2, V3 / Clearance between the central compartment and the peripheral compartment 2, Q3: parameter fixed (FIX); for Intercompartmental clearance between the central compartment and the peripheral compartment 1, Q2: exp(θ3); for Volume of distribution in the peripheral compartment 1, V2: exp(θ4); for Clearance between the central compartment and the peripheral compartment 2, Q3: exp(θ5); for Residual (%): σ1; for Clearance, CL %: ωCL (interindividual variation); for Volume of distribution in the central compartment, V1%: ωV1 (interindividual variation)
# Description: (§1) A pharmacokinetic data set included in the analysis are determined by evaluating the clinical trial data included: • plasma drug concentration data: acquired by means of implementation of the sampling scheme (see FIG. 8); • baseline demographic characteristic data: race, age, height, weight and gender; • blood biochemical index data: blood total protein content, creatinine clearance, glutamic-oxalacetic transaminase and glutamic-pyruvic transaminase; and • blood collection sites.
# (§2) Establishing the preliminary foundation model on the basis of the data processed in step 3 comprising: • (1) describing interindividual variation of the PK parameters by using the following equation:
# (§3) Establishing the final foundation model on the basis of the preliminary foundation model in step 4 comprising: • (1) determining covariates included in the evaluation on the basis of clinical knowledge and a drug action mechanism: • baseline demographic characteristic covariates: baseline values for age, gender, weight and race; • blood biochemical index covariates: creatinine clearance, total protein, glutamic-oxalacetic transaminase, glutamic-pyruvic transaminase, alkaline phosphatase and total bilirubin; and • blood collection sites. • (2) establishing a final population pharmacokinetic foundation model on the basis of the covariates included in the evaluation.
# (§4) Establishing the population pharmacokinetic model by adding the screened covariates on the basis of the final foundation model in step 5 comprising: • (1) Pre-screening of covariates: • analyzing the correlation between the continuous covariates and the PK parameters by using the following equation:
# [2] = clinical; settings: human, plasma, intravenous; for clearance: CL, exp(θ1); for Vd: Volume of distribution in the central compartment, V1, exp(θ2)
# Description: as §1, §2, §3, §4
# [3] = Free drug concentration in the aqueous phase by ultrafiltration method; type: physicochemical; settings: same conditions and concentrations, compared with propofol (Jingan®)
# From the text: Propofol derivative injectable emulsion (hereinafter referred to as propofol derivative, with a chemical name of 2-[(1R)-1-cyclopropylethyl]-6-isopropyl-phenol), which is developed by Sichuan Haisco Pharmaceutical Co., Ltd. as a novel intravenous anesthetic with independent intellectual property rights, is intended to be used for sedation/anesthesia in various diagnostic examinations or treatments, induction and maintenance of general anesthesia, and sedation (ICU sedation) of intensive care subjects under mechanical ventilation. The propofol derivative, as the active ingredient, is a chemical entity similar to propofol, and is a single […] with two chiral centers of R-configuration. […] The main action mechanism of the propofol derivative is to allow for the inflow of chloride ions by enhancing an ion channel mediated by a γ-aminobutyric acid type A (GABAA) receptor, thereby achieving the inhibition of the nervous centralis. The channel is also a main target where propofol exerts its effects. The propofol derivative has the pharmacodynamic characteristics of fast onset of action and stable and rapid recovery.
# [4] = Population pharmacokinetic (PopPK) three-compartment model of the propofol derivative from clinical trial plasma concentrations; type: in vivo, human; settings: for Intercompartmental clearance between the central compartment and the peripheral compartment 1, Q2: exp(θ3); for Volume of distribution in the peripheral compartment 1, V2: exp(θ4); for Clearance between the central compartment and the peripheral compartment 2, Q3: exp(θ5); for Volume of distribution in the peripheral compartment 2, V3: exp(θ6); for relative median change of CL by total protein: total protein range not given; for Residual of venous blood collection (%): σ1; for Residual of arterial blood collection (%): σ2; for Interindividual variation of clearance, CL %: ωCL; for Interindividual variation of intercompartmental clearance between the central compartment and the peripheral compartment 1, Q2%: ωQ2; for Interindividual variation of intercompartmental clearance between the central compartment and the peripheral compartment 2, Q3%: ωQ3; for Interindividual variation of volume of distribution in the central compartment, V1%: ωV1; for Interindividual variation of volume of distribution in the peripheral compartment 2, V3%: ωV3
# From the text: The original data set comprises 2609 measurable plasma drug concentration data from 219 subjects (wherein 81 people receive both arterial and venous blood collection, and subjects receiving another blood collecting method are regarded as new individuals, that is, 300 individuals are included in the population analysis).
# By using a stepwise backward elimination method, no influence factors are eliminated (Δ−2LL>10.83).
# [5] = tested on: γ-aminobutyric acid type A (GABAA) receptor; test: Potency compared with propofol (background statement)
# [6] = typical value of final population model
# [7] = median of Bootstrap (2.5th to 97.5th percentiles)
# [8] = typical value of final population model (95% CI)
compound,measurement,setting,value
CC(C)c1cccc(C(C)C)c1O [propofol],influence of covariates on the pharmacokinetic parameters,"[1]; covariate screening, forward and backward method",not found that covariates have a significant influence
same,"Volume of distribution in the peripheral compartment 2, V3",[1]; Bootstrap column,"262, FIX(—) L"
same,"Volume of distribution in the peripheral compartment 2, V3",[1]; [6],"262, FIX(—) L"
same,"Intercompartmental clearance between the central compartment and the peripheral compartment 1, Q2",[1]; [7],132 (13.0 to 200) L/hr
same,"Intercompartmental clearance between the central compartment and the peripheral compartment 1, Q2",[1]; [8],142 (88.4 to 196) L/hr
same,"Volume of distribution in the peripheral compartment 1, V2",[1]; [7],35.6 (1.64 to 53.3) L
same,"Volume of distribution in the peripheral compartment 1, V2",[1]; [8],37.6 (25.2 to 50.0) L
same,"Clearance between the central compartment and the peripheral compartment 2, Q3",[1]; Bootstrap column,"48.6, FIX(—) L/hr"
same,"Clearance between the central compartment and the peripheral compartment 2, Q3",[1]; [6],"48.6, FIX(—) L/hr"
same,Residual (%),[1]; [7],17.1 (11 to 23.1) %
same,Residual (%),[1]; [8],19.2 (12.7 to 25.7) %
same,"Clearance, CL %",[1]; [7],22.5 (13.6 to 30.6) %
same,"Clearance, CL %",[1]; [8],23.0 (14.8 to 31.1) %
same,"Volume of distribution in the central compartment, V1%",[1]; [7],32.4 (6.02 to 49.5) %
same,"Volume of distribution in the central compartment, V1%",[1]; [8],30.5 (8.11 to 52.9) %
same,clearance,[2]; [7],1530 mL/min
same,clearance,[2]; [8],1590 mL/min
same,Vd,[2]; [7],8.92 L
same,Vd,[2]; [8],9.46 L
"CC(C)c1cccc([C@H](C)C2CC2)c1O [propofol derivative, 2-[(1R)-1-cyclopropylethyl]-6-isopropyl-phenol]",free drug concentration in the aqueous phase,[3],lower free drug concentration in the aqueous phase
same,influence of age on AUC0-24,"[4]; age 19.8 to 53 years old, propofol derivative-302 trial",no influence
same,influence of age on Cmax,"[4]; age 19.8 to 53 years old, propofol derivative-302 trial, expected to be clinically insignificant",has an influence
same,"Clearance, CL","[4]; exp(θ1), median of Bootstrap (2.5th to 97.5th percentiles)",66.4 (63.7 to 69.4) L/hr
same,"Volume of distribution in the central compartment, V1","[4]; exp(θ2), median of Bootstrap (2.5th to 97.5th percentiles)",2.48 (2.27 to 2.74) L
same,"Intercompartmental clearance between the central compartment and the peripheral compartment 1, Q2",[4]; [7],57.9 (51.5 to 65.6) L/hr
same,"Intercompartmental clearance between the central compartment and the peripheral compartment 1, Q2",[4]; [8],58 (50.8 to 65.1) L/hr
same,"Volume of distribution in the peripheral compartment 1, V2",[4]; [7],5.74 (5.07 to 6.7) L
same,"Volume of distribution in the peripheral compartment 1, V2",[4]; [8],5.77 (4.96 to 6.58) L
same,"Clearance between the central compartment and the peripheral compartment 2, Q3",[4]; [7],59.1 (54.6 to 63.6) L/hr
same,"Clearance between the central compartment and the peripheral compartment 2, Q3",[4]; [8],59.0 (54.5 to 63.5) L/hr
same,"Volume of distribution in the peripheral compartment 2, V3",[4]; [7],78.4 (73 to 83.9) L
same,"Volume of distribution in the peripheral compartment 2, V3",[4]; [8],78.3 (72.8 to 83.8) L
same,relative median change of CL by total protein,[4]; first value of the pair,6.8%
same,clearance,"[4]; human, plasma, intravenous, exp(θ1), typical value of final population model (95% CI), read-out: Clearance, CL (converted)",1110 mL/min
same,Vd,"[4]; human, plasma, intravenous, exp(θ2), typical value of final population model (95% CI), read-out: Volume of distribution in the central compartment, V1",2.48 L
same,relative median change of CL by total protein,[4]; second value of the pair,−6.3%
same,relative median change of CL by weight,[4]; weight 45 kg (lower end of range 45 kg to 90 kg),−11.6%
same,relative median change of CL by weight,[4]; weight 90 kg (upper end of range 45 kg to 90 kg),12.7%
same,Residual of venous blood collection (%),[4]; [7],30.5 (26.3 to 34.6) %
same,Residual of venous blood collection (%),[4]; [8],30.6 (26.6 to 34.5) %
same,Residual of arterial blood collection (%),[4]; [7],16.9 (15.7 to 18.2) %
same,Residual of arterial blood collection (%),[4]; [8],16.9 (15.8 to 18.1) %
same,"Interindividual variation of clearance, CL %",[4]; [7],14.3 (11.9 to 17) %
same,"Interindividual variation of clearance, CL %",[4]; [8],14.5 (12 to 16.9) %
same,"Interindividual variation of intercompartmental clearance between the central compartment and the peripheral compartment 1, Q2%",[4]; [7],29.0 (23.1 to 35.5) %
same,"Interindividual variation of intercompartmental clearance between the central compartment and the peripheral compartment 1, Q2%",[4]; [8],28.9 (23.1 to 34.7) %
same,"Interindividual variation of intercompartmental clearance between the central compartment and the peripheral compartment 2, Q3%",[4]; [7],28.8 (22.8 to 36.3) %
same,"Interindividual variation of intercompartmental clearance between the central compartment and the peripheral compartment 2, Q3%",[4]; [8],29.1 (23.1 to 35.1) %
same,"Interindividual variation of volume of distribution in the central compartment, V1%",[4]; [7],40.4 (27.7 to 54.5) %
same,"Interindividual variation of volume of distribution in the central compartment, V1%",[4]; [8],41.4 (28 to 54.9) %
same,"Interindividual variation of volume of distribution in the peripheral compartment 2, V3%",[4]; [7],30.5 (25.3 to 35.7) %
same,"Interindividual variation of volume of distribution in the peripheral compartment 2, V3%",[4]; [8],30.7 (25.6 to 35.8) %
same,potency relative to propofol,[5],4-5 times

# Source: US20250372228A1, “METHOD AND SYSTEM FOR D[…] PHARMACOKINETIC MODEL OF PROPOFOL AND DERIVATIVE THEREOF” (Xizang Haisco Pharmaceutical Co., Ltd., priority 2020, published 2025)
